Entries after “also recorded” stand apart in the source; their conditions may differ. Where a name gives a salt, the structure may show the parent alone.
Key:
[1] = system: 5xFAD mice; assay: Radial water maze test of 5xFAD mice; format: in vivo; conditions: for number of errors in the trial (memory), radial water maze: 5xFAD mice, compared to wild type
Description: B 6SJL-Tg(APPSwF1Lon,PSEN1*M146L*L286V)6799Vas/Mmjax transgenic (5xFAD) mice, which have 5 familial AD (FAD) mutant human genes, show pathological and behavioral signs of AD, including Aβdeposition at 2 months and progressive deficits in behavior. 5xFAD mice have successfully modeled behavior deficits seen in Alzheimer's disease in previous studies, and have been previously evaluated using the Morris water maze, open field test, and radial arm water maze. We purchased 2 males and 4 females heterozygous 5XFAD mice as breeders. We housed breeders in pairs of one male and 2 females. Gestation lasts 19-21 days. Pups (about 5-6 in each delivery) were weaned at (removed from breeding cage and separated) at 3 weeks of age. Tissue for genotyping was collected at the same time that ID numbers are applied. The genotyping was performed by PCR amplification of the SFAD gene. We used male 5xFAD mice (8months old) for this study.
The radial water maze test was performed using a maze with six arms (32 cm length and 19 cm width) radiated from the central circular region (36 cm diameter) placed in a circular pool (100 cm diameter). A clear round platform (9 cm diameter) was placed in one of the arms at 1.5 cm beneath the surface of the water, which was opacified with nontoxic white paint. The water was kept between 22-25° C. Surrounding the pool, a visual cue was placed at each end of the radial arms. Each session consists of four acquisition trials (T1-T4), followed by a 30-min delay interval and then a retention trial (T5). For each session, an escape platform was placed at the end of the goal arm, which was different between sessions. At the beginning of each trial, the mice were placed at the end of one of the remaining five non-goal arms. The mouse was positioned facing the wall, away from the center. Each trial lasts 60 seconds, during which an animal was allowed to swim in order to find the platform. The latency to locate the submerged platform and the number of entries to the non-goal arms were recorded as errors. […]

[2] = system: neural stem cells; assay: Cell counting after immunohistochemistry of postmortem brains (BrdU, βIII-tublin, GFAP); format: in vivo, mice
Description: Once mice reach the criterion for the pre-treatment behavioral testings, posiphen (25 mg/kg) was injected (s.c.) once a day for 7 consecutive days; followed by a combination of posiphen (25 mg/kg) and NBI-18 (0, 3, 10 mg/kg) was, injected (s.c.) once a day, for seven consecutive days; followed by another series of posiphen (25 mg/kg) injections (s.c.) once a day, for seven consecutive days. On the final two days of the combination injections, an injection of BrdU (100 mg/kg) was administered separately (s.c.) once per day.

[3] = Kidney or liver toxicity; conditions: in vivo
[4] = system: cholinesterase; conditions: Greig et al., U.S. Patent Pub. 2004/0024043 and 2004/0138282; cited from earlier work
[5] = system: APP; conditions: AD model animals and patients; cited from earlier work
[6] = system: βAPP; conditions: Greig et al., U.S. Patent Pub. 2004/0024043 and 2004/0138282; cited from earlier work

Structure (SMILES) | number of errors in the trial (memory), radial water maze ([1]; NBI-18 3 mg/kg s.c. alone) | memory function / performance in memory tasks ([1]; AD model animals, summary statement, dose not stated) | new neurons formed / neurogenesis in the brain ([2]; AD model mice, NBI-18 row: without Posiphen treatment, combination row: vs untreated AD model group) | dose at which the effect on stem cell proliferation is maxed out ([2]; brains of the animals used in the behavioral test) [mg/kg] | neural stem cell proliferation / number ([2]; brains of the animals used in the behavioral test, maleate) | dose range without detected kidney or liver toxicity [3] | number of errors in the trial (memory), radial water maze ([1]; Posiphen 25 mg/kg s.c. alone) | cholinesterase activity [4] | APP [5] | βAPP levels in the brain [6]
CN1Cc2nc(N3CCNCC3)ncc2C1=O [NBI-18, 6-Methyl-2-(1-piperazinyl)-6,7-dihydro-5H-pyrrolo[3,4-d]-pyrimidin-5-one maleate] | showed significant memory deficit compare to the wild type | does not help to improve memory function | does not reflect the increase of new neurons formed | 3 | significantly increases endogenous neural stem cells; also recorded: increased stem cell proliferation | up to 1000 mg/kg |  |  |  | 
CN1CC[C@]2(C)c3cc(OC(=O)Nc4ccccc4)ccc3N(C)[C@H]12 [Posiphen, (+)-phenserine] |  |  |  |  |  |  | showed significant memory deficit compare to the wild type | lacks cholinesterase activity | reduction of APP | dramatically reduces βAPP levels in the brain
